Tests used:
[1] = Plasma pharmacokinetics after intravenous injection; format: in vivo, mouse; parameters: distribution volume: unit not given here; details: female Swiss nude mice, 2 nmol/animal
Protocol: In female Swiss nude mice (N=18), the compound of Example 3 solubilized to 10 nmol/ml in 0.9% NaCl solution is injected intravenously (200 μl) into the caudal vein. Blood is collected at various times (5 and 30 minutes then 2, 4, 8 and 24 hours; 3 mice/sample time) and, after centrifugation, the supernatant plasma is transferred to heparinized tubes. The sample is then diluted in 50 μl of a 20 mM ammonium formate/acetonitrile/formic acid 50/50/0.1 buffer mixture to be analyzed by UPLC-MS/MS, ESI+.

[2] = test system: A549 human lung adenocarcinoma model; assay: Targeting of heterotopically-transplanted tumors, fluorescence imaging; format: in vivo, mouse; details: A549 xenograft in Swiss nude mice, 2 nmol i.v., t24h
Protocol: (§1) In the right rear paw of Swiss nude mice (N=12), 1 to 2×10^6 tumor cells are inoculated subcutaneously, forming a group of 3 mice for each tumor cell line (A549 human lung adenocarcinoma model; H460 human lung carcinoma model; HCT116 human colorectal carcinoma model; U87MG human glioblastoma model).
(§2) When the tumors reach a volume of between 0.5 and 1 cm, the compound of Example 3 (200 μl) solubilized at 10 nmol/ml in phosphate buffer solution (PBS) is injected intravenously.
(§3) Under gas anesthesia, 5 acquisitions are carried out at various times of the experiment (2, 4, 6, 8 and 24 hours) using a Caliper IVIS Lumina II apparatus (ex=680 nm; em=720 nm). In parallel, blood samples are taken.
(§4) After the animals are euthanized by cervical dislocation, the organs (kidney, liver, spleen, lung, tumor, blood, muscle, heart, intestine) are taken and ex vivo acquisition is carried out (Lumina II: ex=680 nm; em=720 nm).

[3] = test system: H460 human lung carcinoma model; assay: as above; format: in vivo, mouse; details: H460 xenograft in Swiss nude mice, 2 nmol i.v., t24h
Protocol: as §1, §2, §3, §4

[4] = test system: HCT116 human colorectal carcinoma model; assay: as above; format: in vivo, mouse; details: HCT116 xenograft in Swiss nude mice, 2 nmol i.v., t24h
Protocol: as §1, §2, §3, §4

[5] = test system: U87MG human glioblastoma model; assay: as above; format: in vivo, mouse; details: U87MG xenograft in Swiss nude mice, 2 nmol i.v., t24h
Protocol: as §1, §2, §3, §4

[6] = test system: A549, H460, HCT116, U87MG tumors; assay: Tumor fixation kinetics and ex vivo biodistribution, results stated across the tumor models; format: in vivo, mouse
Protocol: as §1, §2, §3, §4

[7] = test system: K-rasLA1 murine model spontaneously developing bronchioloalveolar carcinoma; assay: Targeting of spontaneous tumors, ex vivo lung fluorescence; format: in vivo, mouse; details: K-rasLA1 mice, 200 μl at 10 nmol/ml i.v.
Protocol: On the K-rasLA1 murine model spontaneously developing bronchioloalveolar carcinoma, tumor development is controlled by X-ray scanner synchronized on respiration before injection of the product to be tested. The compound of Example 3 (200 μl) solubilized at 10 nmol/ml in phosphate buffer solution (PBS) is then injected intravenously.
After the animals are euthanized, the lungs are taken to be fixed by tracheal injection of neutral formalin. Acquisition of fluorescence ex vivo is carried out using a Caliper IVIS Lumina II apparatus (ex=680 nm; em=720 nm). A photograph of the excised lung is also taken.

[8] = test system: U87MG (human glioblastoma) tumor cells; assay: Interaction with tumor development, bioluminescence; format: in vivo
Protocol: In the right rear paw of Swiss nude mice (N=12), 3×10^6 U87MG (human glioblastoma) tumor cells are inoculated subcutaneously. When the tumor reaches a volume of 0.5 cm, luciferin (2 mg/mouse) is injected intraperitoneally in order to carry out bioluminescence acquisition and quantification at D0.
The animals are divided into 3 groups of 4 to form a control group with no injection; a group receiving a single intravenous injection of the compound of Example 3 (2 nmol in 200 μl); and a group receiving a weekly intravenous injection for 4 weeks of the compound of Example 3 (2 nmol in 200 μl). Lastly, bioluminescence acquisition and quantification are carried out 3 times per week after the intraperitoneal injection of luciferin.

For CC[N+]1=C(/C=C/C=C/C=C2/N(CCCCCC(=O)NCc3ccc4c(c3)Cc3cc(OCCCNc5cc(C)ccn5)ccc3CC4CC(=O)O)c3ccc4c(S(=O)(=O)O)cc(S(=O)(=O)O)cc4c3C2(C)C)C(C)(C)c2c1ccc1c(S(=O)(=O)O)cc(S(=O)(=O)O)cc21 (centres unmarked) [Example 3, Cy™ 5.5 Conjugate of the Compound of Preparation 1], the distribution volume [1] was 1, the half-life ([1]; mouse, plasma) was 15 h and the clearance ([1]; mouse, plasma, read-out: plasma clearance rate) was 0.8 mL/min/kg. It also gave a tumor/healthy tissue ratio [2] of 2.3, a tumor/healthy tissue ratio [3] of 1.66 and a tumor/healthy tissue ratio [4] of 2. For the same molecule, the tumor/healthy tissue ratio [5] was 3.5, the “biodistribution in the principal organs” value ([6]; ex vivo, 24 hours after injection) was “high specificity of the probe for the tumor” and the “signal of tumor volume relative to muscle tissue” value ([6]; ex vivo, 24 hours after injection, on average) was 12 times. The tumor/kidney ratio ([6]; ex vivo, t24h) was 2, the “visibility of targeted tumors by fluorescence imaging” value ([6]; whatever cancer line, 2 nmol i.v., 24 hours post-injection) was “clearly visible” and the “targeting of neoplastic lesions formed in situ” value [7] was “strong potential of targeting”. For the same molecule, the “tumor growth by bioluminescence” value ([8]; U87MG in Swiss nude mice, control, single i.v. injection, or weekly i.v. injection for 4 weeks, 2 nmol) was “identical for the three groups” and the “anti- or pro-angiogenic effect” value ([8]; single or multiple injections, 2 nmol/mouse) was “No anti- or pro-angiogenic effect is observed”.

— US9278143B2, “Imaging agents, process for the preparation thereof and pharmaceutical compositions containing same” (CENTRE NATIONAL DE LA RECHERCHE SCIENTIFIQUE (CNRS), priority 2011, dated 2016)
